Read-outs that look alike come from different tables or passages of the source.
Experiments:
[1] = Fluorescence (luminescence) spectra; assay type: physicochemical; settings: for Luminescence in toluene λmax: 365 nm excitation
Procedure: Fluorescence spectra in toluene were measured and absolute fluorescence quantum yields in crystals were determined.
The fluorescence spectra were measured using a setup including a 3MR-3 mirror monochromator, a FEU-1 8 photomultiplier, an M-95 microampermeter. A SVDT-95 lamp was used as the excitation source, the 365 nm exciting line was singled out of its spectrum.

[2] = Electron absorption spectra / extinction; assay type: physicochemical
Text: The compound structure was confirmed by electron absorption spectra and IR ones.

[3] = Absolute fluorescence quantum yield, equal absorption technique; assay type: physicochemical
Procedure: The absolute quantum yield was determined using the equal absorption technique (A. S. Cherkasov, Z. Fiz. Khim. 29, 2209, […]).

[4] = prior art; cited from earlier work
[5] = prior art, cited from earlier work
[6] = cited from earlier work; for Luminescence in toluene η (quantum yield): prior art analogs; for quantum yield η: prior art, medium not stated
[7] = cited from earlier work; for Luminescence in toluene λmax: prior art analogs
[8] = various reagents; prior art; cited from earlier work

Compound	Luminescence in toluene λmax [1] [nm]	Luminescence in toluene λmax ([1]; listed as Example 1) [nm]	λmax.lum ([1]; medium not stated) [nm]	maximum absorption (extinction coefficient) [2]	Absorption λ ([2]; in toluene) [nm]	Luminescence in toluene η (quantum yield) ([3]; in toluene solution)	quantum yield ([3]; medium not stated)	quantum yield of photoluminescence η ([3]; solid state (vacuum-deposited film))	extinction coefficient in the absorption maximum [4]	solubility in organic media ([5]; organic media)	solubility in water ([5]; water)	Luminescence in toluene η (quantum yield) [6]	Luminescence in toluene η (quantum yield) ([6]; listed as Lumogen yellow-green)	quantum yield η [6]	luminescence spectral maximum wavelength ([7]; depending on the luminophor concentration) [nm]	Luminescence in toluene λmax [7] [nm]	chemical stability [8]	λmax.lum ([7]; prior art, medium not stated) [nm]
1-phenyl-5-(p-methoxyphenyl)-3-[1,8-naphthoylene-1′,2′-benzimidazol-4-yl]-2-pyrazol	510	495	> 510	≤ 30,000	412	0.85	approximately 0.82+0.05	0.78	–	–	–	–	–	–	–	–	–	–
O=c1c2cccc3cccc(c32)c2nc3ccccc3n12 [Prior art emission range analog, 1,8-naphthoylene-1′,2′-benzimidazol]	–	–	–	–	–	–	–	–	8000	soluble in organic media	essentially water-insoluble	0.5	> 0.5	> 0.5	490 to 510	490	chemically stable against various reagents	–
COc1cccc2c(-c3ccc(N(C)C)cc3)c3nn(C)cc3nc12 [Prior art structure analog, 2-methyl-5-methoxy-9-(4-dimethylaminophenyl)-2H-pyrazolo[4,3-b]quinoline]	–	–	–	–	–	–	–	–	–	–	–	0.8	–	0.8	–	510	–	510

— patent US20020043656A1, “GREEN ORGANIC LUMINOPHOR” (priority 2000, published 2002)
